The results in this text go back to patent US12527774B2, “Estrogen-related receptor alpha modulators” (LEAD PHARMA HOLDING B.V., priority 2019, dated 2026).

Some results are limits rather than exact numbers.

Sequence of ERRα ligand binding domain (ERRα-LBD) (P11474 193-421): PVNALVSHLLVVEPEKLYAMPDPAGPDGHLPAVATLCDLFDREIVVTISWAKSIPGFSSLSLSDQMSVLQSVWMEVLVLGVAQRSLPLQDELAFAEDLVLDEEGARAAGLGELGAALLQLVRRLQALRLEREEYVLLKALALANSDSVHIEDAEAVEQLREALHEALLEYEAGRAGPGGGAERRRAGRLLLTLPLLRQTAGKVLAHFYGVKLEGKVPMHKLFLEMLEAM

One experiment concerns the target ERRα ligand binding domain (ERRα-LBD) (Homo sapiens (Human), UniProt P11474). Description: ERRα AlphaScreen Assay. It is filed as biochemical. The settings on record: disruption of binding of ERRα-LBD protein to biotin-PGC1α-3 co-activator peptide. From the text:
This assay was based on the knowledge that nuclear receptors interact with cofactors in a ligand dependent matter. The sites of interaction have been mapped to LXXLL motifs that are present in the co-activator sequences. Short peptide sequences that contain the LXXLL motif mimic the behavior of full length co-activators.
The ERRα AlphaScreen Assay described here relies on the interaction of the co-activator peptide with purified bacterial-expressed ERRα ligand binding domain (ERRα-LBD); upon ligand binding the ERRα protein can undergo a conformational change resulting in a loss of co-activator binding.
Compounds of the present invention were tested for their ability to disrupt binding of ERRα-LBD protein to co-activator peptide using AlphaScreen® Technology (Perkin Elmer). ERRα-LBD protein was expressed in E. coli as a 6×His Small Ubiquitin-like Modifier (SUMO) fusion. Bacterial expressed 6His-SUMO-ERRα-LBD protein was purified using affinity chromatography. All experiments were performed at room temperature in 384-well white non-binding plates (Greiner) using 50 mM Tris-HCl pH 7.5, 100 mM NaCl, 0,1% Pluronic F-127, 0.05% BSA and 5 mM TCEP as the buffer. Final DMSO concentration was 1% in the assay. Compounds were assayed in triplicate and: incubated with 0.81 nM ERRα-LBD protein and 10 μg/mL streptavidin donor beads and 10 μg/mL Ni-chelate acceptor beads for 1 hour at room temperature; followed by a 2-hour incubation with 15 nM biotin-PGC1α-3 peptide (QRRPCSELLKYLTTNDDPP) corresponding to amino acids 202 to 220.
The AlphaScreen signal was measured using an Envision Xcite plate reader (Perkin Elmer). Data was normalized, and curve fitting analysis was performed in GraphPad Prism 7 using a four-parameter dose-response fit.
As multiple IC50 values were annotated for the same compound-protein pair, a mean pIC50 for each compound was determined.
For the compound `CNc1ccc(COc2ccc(C3CC(=O)Nc4n[nH]cc43)cc2OC)c(C(F)(F)F)c1` (centres unmarked) [Example 141, 4-(3-methoxy-4-{[4-(methylamino)-2-(trifluoromethyl)phenyl]methoxy}phenyl)-2H,4H,5H,6H,7H-pyrazolo[3,4-b]pyridin-6-one], the “mean pIC50” value was at least 8.

On to `COc1cc(-c2cc(=O)[nH]c3n[nH]cc23)ccc1OCc1ccc(N)cc1C(F)(F)F` [Example 173, 4-(4-{[4-amino-2-(trifluoromethyl)phenyl]methoxy}-3-methoxyphenyl)-2H,6H,7H-pyrazolo[3,4-b]pyridin-6-one], for which the “mean pIC50” value was at least 8.

Turning to `COc1cc(C2CC(=O)Nc3n[nH]cc32)ccc1OCc1ccc(N)cc1C(F)(F)F` (centres unmarked) [Example 135, 4-(4-{[4-amino-2-(trifluoromethyl)phenyl]methoxy}-3-methoxyphenyl)-2H,4H,5H,6H, 7H-pyrazolo[3,4-b]pyridin-6-one], the “mean pIC50” value is on record as at least 8.

With `COc1cc(C2CC(=O)Nc3n[nH]cc32)ccc1OCc1ccccc1I` (centres unmarked) [Example 23, 4-{4-[(2-iodophenyl)methoxy]-3-methoxyphenyl}-2H,4H,5H,6H, 7H-pyrazolo[3,4-b]pyridin-6-one], the “mean pIC50” value is recorded as at least 8.

Still in this experiment, the particulars now being: disruption of binding of ERRα-LBD protein to biotin-PGC1α-3 co-activator peptide; read-out: mean pIC50 (converted).
In the case of `COc1cc(C2CC(=O)Nc3c[nH]nc32)ccc1OCc1ccc(C(C)=O)cc1C(F)(F)F` (centres unmarked) [Example 94, 7-(4-{[4-acetyl-2-(trifluoromethyl)phenyl]methoxy}-3-methoxyphenyl)-2H,4H,5H,6H, 7H-pyrazolo[4,3-b]pyridin-5-one], the IC50 was 100 to 1000 nM.

As for `COc1cc(-c2cc(=O)[nH]c3n[nH]cc23)ccc1OCc1ccc(C#N)cc1C(F)(F)F` [Example 181, 4-[(2-methoxy-4-{6-oxo-2H,6H, 7H-pyrazolo[3,4-b]pyridin-4-yl}phenoxy)methyl]-3-(trifluoromethyl)benzonitrile], the IC50 is 10 to 100 nM.

`COc1cc(C2CC(=O)Nc3n[nH]cc32)ccc1OCc1cc(Cl)ccc1Cl` (centres unmarked) [Example 29, 4-{4-[(2,5-dichlorophenyl)methoxy]-3-methoxyphenyl}-2H,4H,5H,6H, 7H-pyrazolo[3,4-b]pyridin-6-one]: the IC50 is 100 to 1000 nM.

`COc1ccc(COc2ccc(C3CC(=O)Nc4[nH]nnc43)cc2OC)c(C(F)(F)F)c1` (single isomer, unassigned; (+)) [Example 201, (+)-7-(3-methoxy-4-{[4-methoxy-2-(trifluoromethyl)phenyl]methoxy}phenyl)-3H,4H,5H,6H,7H-[1,2,3]triazolo[4,5-b]pyridin-5-one]: the IC50 was 10 to 100 nM.

Turning to `CCOC(=O)c1ccccc1COc1ccc(C2CC(=O)Nc3n[nH]cc32)cc1OC` (centres unmarked) [Example 48, ethyl 2-[(2-methoxy-4-{6-oxo-2H,4H,5H, 6H,7H-pyrazolo[3,4-b]pyridin-4-yl}phenoxy)methyl]benzoate], the IC50 was 100 to 1000 nM.

In the case of `O=C1CC(c2ccc(OCc3ccccc3C(F)(F)F)cc2)c2c[nH]nc2N1` (centres unmarked) [Example 59, 4-(4-{[2-(trifluoromethyl)phenyl]methoxy}phenyl)-2H,4H,5H,6H,7H-pyrazolo[3,4-b]pyridin-6-one], the IC50 is 10 to 100 nM.

As for `COc1cc(C2CC(=O)Nc3n[nH]cc32)ccc1COc1cc(C)cc(C)c1` (centres unmarked) [Example 113, 4-{4-[(3,5-dimethylphenoxy)methyl]-3-methoxyphenyl}-2H,4H,5H,6H,7H-pyrazolo[3,4-b]pyridin-6-one], the IC50 is 100 to 1000 nM.

As to `COc1cc(C2CC(=O)Nc3nn(C)cc32)ccc1OCc1ccccc1C(F)(F)F` (centres unmarked) [Example 80, 4-(3-methoxy-4-{[2-(trifluoromethyl)phenyl]methoxy}phenyl)-2-methyl-2H,4H,5H,6H,7H-pyrazolo[3,4-b]pyridin-6-one], the IC50 was 100 to 1000 nM.

As for `COc1cc(C2CC(=O)Nc3n[nH]cc32)cc(F)c1OCc1ccccc1C(F)(F)F` (centres unmarked) [Example 78, 4-(3-fluoro-5-methoxy-4-{[2-(trifluoromethyl)phenyl]methoxy}phenyl)-2H,4H,5H,6H, 7H-pyrazolo[3,4-b]pyridin-6-one], the IC50 is 100 to 1000 nM.

`COc1cc(C2CC(=O)Nc3n[nH]cc32)ccc1COc1ccc(C(F)F)cc1C(F)(F)F` (single isomer, unassigned; (+)) [Example 195, (+)-4-(4-{[4-(difluoromethyl)-2-(trifluoromethyl)phenoxy]methyl}-3-methoxyphenyl)-2H,4H,5H,6H,7H-pyrazolo[3,4-b]pyridin-6-one]: the IC50 was 10 to 100 nM.

For the compound `O=C1CC(c2ccc(OCc3ccccc3Br)cc2)c2c[nH]nc2N1` (centres unmarked) [Example 58, 4-{4-[(2-bromophenyl)methoxy]phenyl}-2H,4H,5H,6H,7H-pyrazolo[3,4-b]pyridin-6-one], the IC50 is 100 to 1000 nM.

On to `COc1cc(C2CC(=O)Nc3n[nH]cc32)ccc1COc1ccc(C)cc1C` (single isomer, unassigned; (+)) [Example 219, (+)-4-{4-[(2,4-dimethylphenoxy)methyl]-3-methoxyphenyl}-2H,4H,5H,6H,7H-pyrazolo[3,4-b]pyridin-6-one], for which the IC50 is 100 to 1000 nM.

As to `COc1cc(C2CC(=O)Nc3c[nH]nc32)ccc1OCc1ccc(CCO)cc1C(F)(F)F` (centres unmarked) [Example 156, 7-(4-{[4-(2-hydroxyethyl)-2-(trifluoromethyl)phenyl]methoxy}-3-methoxyphenyl)-2H,4H,5H,6H, 7H-pyrazolo[4,3-b]pyridin-5-one], the IC50 was 10 to 100 nM.

As for `COc1cc(C2CC(=O)Nc3n[nH]cc32)ccc1COc1ccc(C(F)(F)F)cc1C` (centres unmarked) [Example 112, 4-(3-methoxy-4-{[2-methyl-4-(trifluoromethyl)phenoxy]methyl}phenyl)-2H,4H,5H,6H,7H-pyrazolo[3,4-b]pyridin-6-one], the IC50 is 10 to 100 nM.

Turning to `COc1cc(C2CC(=O)Nc3ccsc32)ccc1OCc1ccccc1C(F)(F)F` (centres unmarked) [Example 85, 7-(3-methoxy-4-{[2-(trifluoromethyl)phenyl]methoxy}phenyl)-4H,5H,6H, 7H-thieno[3,2-b]pyridin-5-one], the IC50 was 10 to 100 nM.

As for `O=C1CC(c2ccc(OCc3ccccc3C(F)(F)F)c(C(F)(F)F)c2)c2c[nH]nc2N1` (centres unmarked) [Example 76, 4-[3-(trifluoromethyl)-4-{[2-(trifluoromethyl)phenyl]methoxy}phenyl]-2H,4H,5H,6H, 7H-pyrazolo[3,4-b]pyridin-6-one], the IC50 is 100 to 1000 nM.

As to `COc1cc(C2CC(=O)Nc3n[nH]cc32)ccc1OCc1ccccc1C(F)F` (centres unmarked) [Example 49, 4-(4-{[2-(difluoromethyl)phenyl]methoxy}-3-methoxyphenyl)-2H,4H,5H,6H, 7H-pyrazolo[3,4-b]pyridin-6-one], the IC50 is 100 to 1000 nM.

With `COc1cc(C2CC(=O)Nc3n[nH]cc32)ccc1OCc1cc(Cl)cc(Cl)c1Cl` (centres unmarked) [Example 31, 4-{3-methoxy-4-[(2,3,5-trichlorophenyl)methoxy]phenyl}-2H,4H,5H,6H,7H-pyrazolo[3,4-b]pyridin-6-one], the IC50 is 100 to 1000 nM.

Consider `NC(=O)c1cc(C2CC(=O)Nc3n[nH]cc32)ccc1OCc1ccccc1C(F)(F)F` (centres unmarked) [Example 130, 5-{6-oxo-2H,4H,5H,6H, 7H-pyrazolo[3,4-b]pyridin-4-yl}-2-{[2-(trifluoromethyl)phenyl]methoxy}benzamide], for which the IC50 is 100 to 1000 nM.

Take `COc1cc(C2CC(=O)Nc3n[nH]c(C)c32)ccc1OCc1ccccc1C(F)(F)F` (centres unmarked) [Example 82, 4-(3-methoxy-4-{[2-(trifluoromethyl)phenyl]methoxy}phenyl)-3-methyl-2H,4H,5H,6H,7H-pyrazolo[3,4-b]pyridin-6-one]: the IC50 was 100 to 1000 nM.

With `COc1cc(C2CC(=O)Nc3n[nH]cc32)ccc1OCc1cccc2cccnc12` (centres unmarked) [Example 47, 4-{3-methoxy-4-[(quinolin-8-yl)methoxy]phenyl}-2H,4H,5H,6H, 7H-pyrazolo[3,4-b]pyridin-6-one], the IC50 is 100 to 1000 nM.

Take `COc1cc(C2CC(=O)Nc3n[nH]cc32)ccc1COc1ccc(C)cc1C(F)(F)F` (single isomer, unassigned; (+)) [Example 213, (+)-4-(3-methoxy-4-{[4-methyl-2-(trifluoromethyl)phenoxy]methyl}phenyl)-2H,4H,5H,6H,7H-pyrazolo[3,4-b]pyridin-6-one]: the IC50 was 10 to 100 nM.

For the compound `COc1cc(C2CC(=O)Nc3n[nH]cc32)ccc1OCc1ccc(S(C)(=O)=O)cc1C(F)(F)F` (centres unmarked) [Example 37, 4-(4-{[4-methanesulfonyl-2-(trifluoromethyl)phenyl]methoxy}-3-methoxyphenyl)-2H,4H,5H,6H,7H-pyrazolo[3,4-b]pyridin-6-one], the IC50 is 100 to 1000 nM.

For `COc1cc(C2CC(=O)Nc3n[nH]cc32)ccc1OCc1ccc([N+](=O)[O-])cc1C(F)(F)F` (centres unmarked) [Example 34, 4-(3-methoxy-4-{[4-nitro-2-(trifluoromethyl)phenyl]methoxy}phenyl)-2H,4H,5H,6H,7H-pyrazolo[3,4-b]pyridin-6-one], the IC50 was 10 to 100 nM.

With `CCCOC(=O)c1ccccc1COc1ccc(C2CC(=O)Nc3n[nH]cc32)cc1OC` (centres unmarked) [Example 125, propyl 2-(2-methoxy-4-{6-oxo-2H,4H,5H,6H,7H-pyrazolo[3,4-b]pyridin-4-yl}phenoxymethyl)benzoate], the IC50 is 100 to 1000 nM.
